Test results published in ChEMBL document CHEMBL4145533, “6,7-Dimorpholinoalkoxy quinazoline derivatives as potent EGFR inhibitors with enhanced antiproliferative activities against tumor cells” (Eur J Med Chem, 2018).
Calls of active or inactive are those of the source. The calls are words filed in the database; no cut-off is given here.

Key:
A549 [1] = test: Cell cycle arrest in human A549 cells assessed as accumulation at G0/G1 phase at 2 uM after 48 hrs by propidium iodide satining based FACS analysis (reference value: 48.87%); type: functional
A549 [2] = test: Induction of apoptosis in human A549 cells assessed as late apoptotic cells at 1 uM after 48 hrs by Annexin V-FITC/propidium iodide satining based FACS analysis (reference value: 1.21%); type: functional
HCC827 = test: Antiproliferative activity against human HCC827 cells harboring EGFR E746-A750 del mutant after 72 hrs by MTT assay; type: functional, cell-based; conditions: HCC827, 72 h
A549 [3] = test: Cell cycle arrest in human A549 cells assessed as accumulation at G0/G1 phase at 5 uM after 48 hrs by propidium iodide satining based FACS analysis (reference value: 48.87%); type: functional
A549 [4] = test: Induction of apoptosis in human A549 cells assessed as early apoptotic cells at 4 uM after 48 hrs by Annexin V-FITC/propidium iodide satining based FACS analysis (reference value: 2.78%); type: functional
A549 [5] = test: Induction of apoptosis in human A549 cells assessed as necrotic cells at 2 uM after 48 hrs by Annexin V-FITC/propidium iodide satining based FACS analysis (reference value: 0.14%); type: functional
[6] = biological target: T1, Epidermal growth factor receptor (Homo sapiens, UniProt P00533); conditions: A549, at 5 µM
T1 sequence (P00533 whole entry): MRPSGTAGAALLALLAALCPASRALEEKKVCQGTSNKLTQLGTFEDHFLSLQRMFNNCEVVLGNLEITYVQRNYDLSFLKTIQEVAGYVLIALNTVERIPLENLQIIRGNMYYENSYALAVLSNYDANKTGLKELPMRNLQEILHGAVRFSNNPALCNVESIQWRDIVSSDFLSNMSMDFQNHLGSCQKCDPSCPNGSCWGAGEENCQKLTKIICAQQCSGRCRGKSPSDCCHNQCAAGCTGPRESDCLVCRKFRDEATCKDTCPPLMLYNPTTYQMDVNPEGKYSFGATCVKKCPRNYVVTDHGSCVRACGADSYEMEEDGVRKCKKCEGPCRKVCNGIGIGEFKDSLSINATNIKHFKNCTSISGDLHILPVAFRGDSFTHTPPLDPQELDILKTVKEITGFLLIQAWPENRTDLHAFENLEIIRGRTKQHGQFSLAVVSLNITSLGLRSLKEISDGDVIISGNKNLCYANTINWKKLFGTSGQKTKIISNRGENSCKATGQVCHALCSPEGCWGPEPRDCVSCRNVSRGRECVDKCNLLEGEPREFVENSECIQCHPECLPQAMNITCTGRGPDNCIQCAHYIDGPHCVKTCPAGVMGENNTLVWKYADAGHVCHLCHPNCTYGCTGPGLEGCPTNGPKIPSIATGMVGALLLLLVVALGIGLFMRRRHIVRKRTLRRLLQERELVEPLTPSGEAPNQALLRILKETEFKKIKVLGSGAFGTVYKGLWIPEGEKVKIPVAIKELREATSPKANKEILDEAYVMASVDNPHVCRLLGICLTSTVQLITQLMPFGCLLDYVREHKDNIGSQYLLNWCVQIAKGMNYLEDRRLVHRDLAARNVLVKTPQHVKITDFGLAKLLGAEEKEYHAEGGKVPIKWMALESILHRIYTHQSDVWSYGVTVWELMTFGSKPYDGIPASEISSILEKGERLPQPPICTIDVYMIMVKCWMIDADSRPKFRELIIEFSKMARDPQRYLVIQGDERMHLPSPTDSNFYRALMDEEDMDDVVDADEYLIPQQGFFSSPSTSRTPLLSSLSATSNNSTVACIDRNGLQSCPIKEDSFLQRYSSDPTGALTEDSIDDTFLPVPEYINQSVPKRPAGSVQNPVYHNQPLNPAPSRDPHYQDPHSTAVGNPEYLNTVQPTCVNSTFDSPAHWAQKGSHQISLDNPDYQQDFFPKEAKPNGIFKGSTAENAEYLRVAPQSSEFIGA
Description: Inhibition of EGF-induced EGFR activation in human A549 cells assessed as reduction in ERK1/2 phosphorylation at T202/Y204 residues at 5 uM preincubated for 2 hrs followed by EGF stimulation measured after 10 mins by Western blot analysis

A549 [7] = test: Cell cycle arrest in human A549 cells assessed as accumulation at G2/M phase at 1 uM after 48 hrs by propidium iodide satining based FACS analysis (reference value: 16.09%); type: functional
A549 [8] = test: Induction of apoptosis in human A549 cells assessed as necrotic cells at 3 uM after 48 hrs by Annexin V-FITC/propidium iodide satining based FACS analysis (reference value: 0.14%); type: functional
A549 [9] = test: Cell cycle arrest in human A549 cells assessed as accumulation at G2/M phase at 5 uM after 48 hrs by propidium iodide satining based FACS analysis (reference value: 16.09%); type: functional
[10] = system: Epidermal growth factor receptor (Homo sapiens), P00533 [L858R,T790M]; test: Inhibition of EGF-induced EGFR L858R/T790M double mutant activation in human NCI-H1975 cells assessed as reduction in Akt phosphorylation at S473 residue at 5 uM preincubated for 2 hrs followed by EGF stimulation measured after 10 mins by Western blot analysis; type: cell-based
Sequence of Epidermal growth factor receptor (Homo sapiens), P00533 [L858R,T790M] (P00533 whole entry T790M/L858R, looked up): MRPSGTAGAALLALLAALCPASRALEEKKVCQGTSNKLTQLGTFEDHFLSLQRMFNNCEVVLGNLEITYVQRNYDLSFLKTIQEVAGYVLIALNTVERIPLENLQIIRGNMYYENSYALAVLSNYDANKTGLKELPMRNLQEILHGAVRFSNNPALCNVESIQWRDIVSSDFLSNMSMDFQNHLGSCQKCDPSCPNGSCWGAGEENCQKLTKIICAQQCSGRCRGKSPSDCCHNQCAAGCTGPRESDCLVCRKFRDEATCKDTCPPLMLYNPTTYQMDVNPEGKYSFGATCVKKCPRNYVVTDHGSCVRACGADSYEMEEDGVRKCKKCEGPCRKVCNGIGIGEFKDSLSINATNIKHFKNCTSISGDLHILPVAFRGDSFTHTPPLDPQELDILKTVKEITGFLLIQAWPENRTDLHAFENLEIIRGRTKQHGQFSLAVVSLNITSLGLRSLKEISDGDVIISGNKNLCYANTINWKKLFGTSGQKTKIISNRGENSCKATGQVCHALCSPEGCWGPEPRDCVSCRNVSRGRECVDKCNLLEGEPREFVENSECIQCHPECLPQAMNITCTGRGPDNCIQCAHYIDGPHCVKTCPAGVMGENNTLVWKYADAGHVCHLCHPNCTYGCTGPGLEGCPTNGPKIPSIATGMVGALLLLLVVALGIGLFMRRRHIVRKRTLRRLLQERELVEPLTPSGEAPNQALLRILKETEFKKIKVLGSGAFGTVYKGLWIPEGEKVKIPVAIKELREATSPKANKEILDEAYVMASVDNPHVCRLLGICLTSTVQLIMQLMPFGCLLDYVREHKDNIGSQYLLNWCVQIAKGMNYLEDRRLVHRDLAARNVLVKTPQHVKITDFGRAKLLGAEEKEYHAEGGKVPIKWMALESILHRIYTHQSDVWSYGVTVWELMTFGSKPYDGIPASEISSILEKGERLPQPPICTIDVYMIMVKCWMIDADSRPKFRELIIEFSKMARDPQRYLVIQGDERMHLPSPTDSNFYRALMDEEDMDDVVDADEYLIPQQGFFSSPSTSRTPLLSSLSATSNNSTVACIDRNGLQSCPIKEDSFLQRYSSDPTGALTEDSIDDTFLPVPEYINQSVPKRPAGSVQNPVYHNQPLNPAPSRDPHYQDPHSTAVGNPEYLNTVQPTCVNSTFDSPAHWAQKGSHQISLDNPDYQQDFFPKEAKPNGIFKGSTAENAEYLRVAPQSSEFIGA

A549 [11] = test: Induction of apoptosis in human A549 cells assessed as viable cells at 2 uM after 48 hrs by Annexin V-FITC/propidium iodide satining based FACS analysis (reference value: 95.87%); type: functional; conditions: A549, 48 h, read-out: Activity
[12] = biological target: T1, Epidermal growth factor receptor; conditions: A549, at 5 µM; remark: listed apart in the source
Description: Inhibition of EGF-induced EGFR phosphorylation at Y1086 residue in human A549 cells at 5 uM preincubated for 2 hrs followed by EGF stimulation measured after 10 mins by Western blot analysis

[13] = system: Epidermal growth factor receptor (Homo sapiens), P00533 [L858R,T790M]; test: Inhibition of EGF-induced EGFR L858R/T790M double mutant phosphorylation at Y992 residue in human NCI-H1975 cells preincubated for 2 hrs followed by EGF stimulation measured after 10 mins by Western blot analysis; type: cell-based
NCI-H1975 = test: Antiproliferative activity against human NCI-H1975 cells harboring EGFR L858R/T790M double mutant after 72 hrs by MTT assay; type: functional, cell-based; conditions: NCI-H1975, 72 h
[14] = biological target: T1, Epidermal growth factor receptor; test: Inhibition of EGF-induced EGFR activation in human A549 cells assessed as reduction in Akt phosphorylation at S473 residue at 0.2 uM preincubated for 2 hrs followed by EGF stimulation measured after 10 mins by Western blot analysis; type: cell-based
[15] = biological target: T1, Epidermal growth factor receptor; test: Inhibition of EGF-induced EGFR activation in human A549 cells assessed as reduction in ERK1/2 phosphorylation at T202/Y204 residues at 0.2 uM preincubated for 2 hrs followed by EGF stimulation measured after 10 mins by Western blot analysis; type: cell-based
[16] = biological target: T1, Epidermal growth factor receptor; type: cell-based, HEK293
Description: Inhibition of recombinant human N-terminal His-tagged EGFR (1 to 645 residues) expressed in HEK293 cells by ELISA

[17] = biological target: T1, Epidermal growth factor receptor; conditions: A549, at 5 µM; remark: listed apart in the source
Description: Inhibition of EGF-induced EGFR activation in human A549 cells assessed as reduction in Akt phosphorylation at S473 residue at 5 uM preincubated for 2 hrs followed by EGF stimulation measured after 10 mins by Western blot analysis

[18] = biological target: T1, Epidermal growth factor receptor; test: Inhibition of EGF-induced EGFR phosphorylation at Tyrosine residue in human A549 cells at 0.2 uM preincubated for 2 hrs followed by EGF stimulation measured after 10 mins by Western blot analysis; type: cell-based
[19] = biological target: Epidermal growth factor receptor (Homo sapiens, UniProt P00533, T790M); test: Inhibition of EGFR T790M mutant (unknown origin) preincubated for 10 mins followed by TK substrate-botion addition measured after 1 hr by spectrophotometric method
Sequence of Epidermal growth factor receptor (Homo sapiens, UniProt P00533, T790M) (P00533 25-1210 T790M limits assumed): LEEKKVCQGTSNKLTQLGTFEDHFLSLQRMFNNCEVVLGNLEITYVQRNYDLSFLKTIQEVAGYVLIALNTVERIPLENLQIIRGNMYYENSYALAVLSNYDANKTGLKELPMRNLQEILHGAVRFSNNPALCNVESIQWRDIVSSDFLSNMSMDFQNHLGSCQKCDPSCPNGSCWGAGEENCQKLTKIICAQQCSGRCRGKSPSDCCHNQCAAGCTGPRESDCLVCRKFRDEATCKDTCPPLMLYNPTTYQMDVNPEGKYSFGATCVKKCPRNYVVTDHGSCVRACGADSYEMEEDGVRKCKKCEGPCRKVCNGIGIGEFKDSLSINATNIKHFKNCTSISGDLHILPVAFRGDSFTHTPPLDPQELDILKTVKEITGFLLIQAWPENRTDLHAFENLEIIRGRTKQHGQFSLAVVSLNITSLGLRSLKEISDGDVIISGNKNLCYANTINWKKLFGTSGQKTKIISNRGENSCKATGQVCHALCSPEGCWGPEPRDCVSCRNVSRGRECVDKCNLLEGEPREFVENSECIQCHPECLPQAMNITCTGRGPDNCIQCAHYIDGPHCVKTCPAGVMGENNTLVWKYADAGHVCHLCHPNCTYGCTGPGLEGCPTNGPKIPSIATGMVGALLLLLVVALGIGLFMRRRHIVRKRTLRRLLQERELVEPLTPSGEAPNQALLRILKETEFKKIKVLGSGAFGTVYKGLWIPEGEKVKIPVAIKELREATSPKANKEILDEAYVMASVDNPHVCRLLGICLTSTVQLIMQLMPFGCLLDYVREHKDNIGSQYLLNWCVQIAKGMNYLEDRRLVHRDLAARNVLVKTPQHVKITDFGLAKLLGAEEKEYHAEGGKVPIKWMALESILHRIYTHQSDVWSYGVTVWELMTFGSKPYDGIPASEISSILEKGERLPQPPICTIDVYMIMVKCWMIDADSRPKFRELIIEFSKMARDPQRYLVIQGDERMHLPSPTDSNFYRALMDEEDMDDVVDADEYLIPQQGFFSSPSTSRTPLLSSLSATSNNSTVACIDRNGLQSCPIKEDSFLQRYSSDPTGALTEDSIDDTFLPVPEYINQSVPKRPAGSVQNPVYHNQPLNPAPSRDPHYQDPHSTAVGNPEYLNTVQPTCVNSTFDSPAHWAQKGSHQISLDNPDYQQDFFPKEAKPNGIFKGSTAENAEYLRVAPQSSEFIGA

A549 [20] = test: Cell cycle arrest in human A549 cells assessed as accumulation at S phase at 2 uM after 48 hrs by propidium iodide satining based FACS analysis (reference value: 34.45%); type: functional
A549 [21] = test: Induction of apoptosis in human A549 cells assessed as early apoptotic cells at 3 uM after 48 hrs by Annexin V-FITC/propidium iodide satining based FACS analysis (reference value: 2.78%); type: functional
A549 [22] = test: Effect on total EGFR protein expression in human A549 cells at 0.2 to 5 uM after 2 hrs by Western blot analysis; type: ADME, cell-based; conditions: a549, 2 h
[23] = system: Epidermal growth factor receptor (Homo sapiens), P00533 [L858R,T790M]; test: Inhibition of EGF-induced EGFR L858R/T790M double mutant phosphorylation at Y1068 residue in human NCI-H1975 cells preincubated for 2 hrs followed by EGF stimulation measured after 10 mins by Western blot analysis; type: cell-based
[24] = biological target: Epidermal growth factor receptor (Homo sapiens, UniProt P00533, L858R/T790M); test: Inhibition of EGFR L858R/T790M double mutant (unknown origin) using ULight-poly GT as substrate preincubated for 30 mins followed by substrate addition measured after 1 hr by spectrophotometric method
Sequence of Epidermal growth factor receptor (Homo sapiens, UniProt P00533, L858R/T790M) (P00533 25-1210 T790M/L858R limits assumed): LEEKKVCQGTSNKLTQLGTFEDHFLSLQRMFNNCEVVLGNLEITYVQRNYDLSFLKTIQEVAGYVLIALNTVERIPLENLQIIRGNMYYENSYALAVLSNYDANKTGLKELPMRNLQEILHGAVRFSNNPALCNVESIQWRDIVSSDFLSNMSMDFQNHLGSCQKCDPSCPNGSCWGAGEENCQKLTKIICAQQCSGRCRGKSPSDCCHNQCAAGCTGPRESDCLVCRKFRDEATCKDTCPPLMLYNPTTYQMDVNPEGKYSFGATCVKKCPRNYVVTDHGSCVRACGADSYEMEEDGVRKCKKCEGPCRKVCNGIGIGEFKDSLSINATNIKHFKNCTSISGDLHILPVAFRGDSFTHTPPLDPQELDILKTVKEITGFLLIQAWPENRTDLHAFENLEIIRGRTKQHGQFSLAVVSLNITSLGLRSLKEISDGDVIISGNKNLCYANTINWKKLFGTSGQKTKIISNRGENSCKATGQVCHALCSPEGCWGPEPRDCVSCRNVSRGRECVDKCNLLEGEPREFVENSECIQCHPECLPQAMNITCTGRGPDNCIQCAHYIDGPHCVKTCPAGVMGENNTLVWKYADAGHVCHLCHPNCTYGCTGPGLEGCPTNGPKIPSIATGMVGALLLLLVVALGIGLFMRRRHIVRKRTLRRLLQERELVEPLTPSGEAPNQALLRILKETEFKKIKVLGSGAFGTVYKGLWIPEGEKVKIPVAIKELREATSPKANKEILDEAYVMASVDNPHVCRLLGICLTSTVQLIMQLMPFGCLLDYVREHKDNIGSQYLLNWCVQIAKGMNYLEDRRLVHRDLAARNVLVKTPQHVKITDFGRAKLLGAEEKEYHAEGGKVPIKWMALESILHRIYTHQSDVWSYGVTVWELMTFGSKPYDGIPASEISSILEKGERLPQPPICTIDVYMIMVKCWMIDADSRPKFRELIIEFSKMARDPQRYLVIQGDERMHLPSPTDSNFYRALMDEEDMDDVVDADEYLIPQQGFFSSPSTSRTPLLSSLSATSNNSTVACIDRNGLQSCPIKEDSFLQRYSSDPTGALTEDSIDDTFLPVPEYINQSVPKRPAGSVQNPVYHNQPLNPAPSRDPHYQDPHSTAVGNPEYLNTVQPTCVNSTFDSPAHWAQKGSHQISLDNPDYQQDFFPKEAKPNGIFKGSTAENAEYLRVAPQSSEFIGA

[25] = system: Epidermal growth factor receptor (Homo sapiens), P00533 [L858R,T790M]; test: Inhibition of EGF-induced EGFR L858R/T790M double mutant activation in human NCI-H1975 cells assessed as reduction in ERK1/2 phosphorylation at T202/Y204 residues at 5 uM preincubated for 2 hrs followed by EGF stimulation measured after 10 mins by Western blot analysis; type: cell-based
A549 [26] = test: Induction of apoptosis in human A549 cells assessed as viable cells at 4 uM after 48 hrs by Annexin V-FITC/propidium iodide satining based FACS analysis (reference value: 95.87%); type: functional; conditions: A549, 48 h, read-out: Activity
[27] = biological target: T1, Epidermal growth factor receptor; test: Inhibition of EGF-induced EGFR phosphorylation at Y992 residue in human A549 cells at 0.2 uM preincubated for 2 hrs followed by EGF stimulation measured after 10 mins by Western blot analysis; type: cell-based
[28] = biological target: T1, Epidermal growth factor receptor; test: Inhibition of EGF-induced EGFR activation in human A549 cells assessed as reduction in STAT3 phosphorylation at 0.2 to 5 uM preincubated for 2 hrs followed by EGF stimulation measured after 10 mins by Western blot analysis; type: cell-based
A549 [29] = test: Cell cycle arrest in human A549 cells assessed as accumulation at S phase at 0.5 uM after 48 hrs by propidium iodide satining based FACS analysis (reference value: 34.45%); type: functional
A549 [30] = test: Effect on total Akt protein expression in human A549 cells at 0.2 to 5 uM after 2 hrs by Western blot analysis; type: ADME, cell-based; conditions: a549, 2 h

IC50 (HCC827): 370 nM
inhibition [6]: Active
inhibition [10]: Active
inhibition [12]: Active
inhibition [13]: Dose-dependent effect
IC50 (NCI-H1975): 4.87 µM
inhibition [14]: Active
inhibition [15]: Active
IC50 [16]: 7 nM
inhibition [17]: Active
inhibition [18]: Active
IC50 [19]: 9.3 nM
inhibition [23]: Dose-dependent effect
IC50 [24]: > 2000 nM
inhibition [25]: Active
inhibition [27]: Active
inhibition [28]: inactive
Compound: Fc1cccc(COc2ccc(Nc3ncnc4cc(OCCCN5CCOCC5)c(OCCCN5CCOCC5)cc34)cc2Cl)c1
Activity (A549 [1]): 58.45%
Activity (A549 [2]): 3.43%
Activity (A549 [3]): 73.54%
Activity (A549 [4]): 14.81%
Activity (A549 [5]): 0.31%
Activity (A549 [7]): 11.69%
Activity (A549 [8]): 0.23%
Activity (A549 [9]): 8.8%
viability at 2 µM (A549 [11]): 87.9%
Activity (A549 [20]): 30.54%
Activity (A549 [21]): 8.52%
Activity (A549 [22]): Non-Toxic
viability at 4 µM (A549 [26]): 48.4%
Activity (A549 [29]): 33.8%
Activity (A549 [30]): Non-Toxic
